Measured values: US20150258020A1, “CHEWABLE TABLETS COMPRISING LEVONORGESTREL” (priority 2014, published 2015)

Settings: particle size by volume, laser light diffraction, dry dispersion
From the text: Particle size determination of Levonorgestrel
Equipment • Diffractometer of laser light, Mastersizer 3000 or equivalent • Micro analytical balance or semimicro
Weigh approximately 0.2-0.3g of the drug substance, and introduce to the dry accessory.
Dispersion Unit: MAZ3500 and cell (AD01)
Refraction index: 1.5/1.5 (red light/blue light)
Distribution Format: • Single mode • Enhanced sensitivity • Fine powder (activate)
Background run time: 10 s
Filter obscuration: 0.5-6%
Sampler settings: • Vibration feed rate: 50% • Dispersive air pressure: 2.5 bar

- D10: 0.2 μm
- D50: 1.0 μm
- D90: 1.1 μm
SMILES: C#C[C@]1(O)CC[C@H]2[C@@H]3CCC4=CC(=O)CC[C@@H]4[C@H]3CC[C@@]21CC [Ultra-micronized levonorgestel, Levonorgestrel]
